According to US20200046647A1, “EXOSOME-BASED NANOPARTICLE COMPOSITE AND METHOD FOR PREPARING THE SAME” (Korea University Research and Business Foundation, Sejong …, priority 2017, published 2020):
Structures can show the parent of a compound that is named as a salt.

Experiment: Drug release pattern analysis (dialysis bag, phosphate-buffered saline)
Type: physicochemical
Details: within 24 h; body temperature (37° C.); PBS pH 7.4; FIG. 7
Protocol: The core/shell nanoparticle composite prepared in Example 1-1 was sampled, placed in a dialysis bag (molecular weight filtration limit: 100,000), and impregnated with 30 ml of phosphate-buffered saline (PBS, pH 7.4). The amount of the sampled nanoparticle composite was determined such that 10 mg of the doxorubicin-HCl was present in the sample. The phosphate-buffered saline was stirred at 100 rpm while maintaining the temperature at 37.5° C. After the lapse of a predetermined time, 5 ml of the phosphate-buffered saline was sampled. The amount of the drug released was measured by […]. After sampling, the remaining phosphate-buffered saline was completely removed and replaced with a fresh one. The amount of the doxorubicin-HCl released was measured using a UV-Vis spectrometer (G1103A, Agilent, USA).
For comparison, each of doxorubicin-HCl (10 mg) and the liposome-based core/shell nanoparticle composite prepared in Comparative Example 1 (containing 10 mg of doxorubicin-HCl) was added to 10 mL of distilled water. The release behavior of the drug in the aqueous solution was measured by the same procedure as described above.

COc1cccc2c1C(=O)c1c(O)c3c(c(O)c1C2=O)C[C@@](O)(C(=O)CO)C[C@@H]3O[C@H]1C[C@H](N)[C@H](O)[C@H](C)O1 [doxorubicin-HCl]
drug released into phosphate-buffered saline: > 95%
